The text below walks through data of publication PMC10636135, “Computational design of highly efficient thermostable MHET hydrolases and dual enzyme system for PET recycling” (Communications Biology, 2023).

For assay [1], the system named is T1, KL36F (fusion of KL-MHETase and FAST-PETase).
T1 construct: gene est; order judged from name; FAST-PETase moiety also hydrolyses MHET weakly; with Poly(ethylene terephthalate) hydrolase
In words: initial rates, TPA by HPLC, Michaelis-Menten fit. Format: biochemical, Geobacillus stearothermophilus. The following applies: 50 mM sodium phosphate, pH 7.5, 50 °C.

Assay [2] concerns the target T2, 1EVQ (thermostable scaffold) (Alicyclobacillus acidocaldarius, UniProt Q7SIG1).
T2 construct: synthesized codon-optimized gene, pET-22b(+), E. coli BL21(DE3); named only by PDB code
In words: relative MHET hydrolysis activity. Format: biochemical. The settings on record: 4.8 mM MHET, 0.25 μM enzyme, 50 mM sodium phosphate, pH 7.5, 50 °C, 10 min.

For orientation: Km means the substrate concentration at which the rate is half of its maximum.

As for `O=C(O)c1ccc(C(=O)OCCO)cc1` [MHET], the Km in assay [1] is 4.52 ± 0.67 mM. In addition, the relative activity in assay [2] is 1EVQ and 1TQH, exhibited apparent activity with regard to MHET hydrolysis.
